Measurements as given in publication PMC7591906, “pHLIP ICG for delineation of tumors and blood flow during fluorescence-guided surgery” (Scientific Reports, 2020).
Peptide text beside a SMILES is read from it. * marks the point of attachment. X1 = CC1(C)C(/C=C/C=C/C=C/C=C2/N(CCCCCC(=O)NCCN3C(=O)CC(*)C3=O)c3ccc4ccccc4c3C2(C)C)=[N+](CCCCS(=O)(=O)[O-])c2ccc3ccccc3c21

Assays:
[1] = system: 86 enzyme and receptor targets; assay: Safety pharmacology profiling, enzyme and receptor binding panel (Eurofins Panlabs); details: 2 µM; all targets except progesterone receptor B
Protocol: The pHLIP ICG enzyme binding assays were performed by Eurofins Panlabs, Inc. according to standard assay protocols. […] The most significant inhibitory effect of pHLIP ICG was observed on progesterone B and was followed by an additional study to identify IC50 values, which were determined by a non-linear least square regression analysis using MathIQTM (ID Business Solutions Ltd., UK). The Ki values were calculated by the equation from Cheng and Prusoff [Cheng, Y., Prusoff, W.H., Biochem. Pharmacol. 22:3099-3108, 1973] using the observed IC50 of pHLIP ICG , the concentration of radioligand employed in the assay, and the historical values for the KD of the ligand (Eurofins Panlabs data). The Hill coefficient (nH), defining the slope of the competitive binding curve, was calculated using MathIQTM. […]

[2] = pH-dependent insertion into POPC liposomes (circular dichroism at 222 nm); type: physicochemical; details: 5 µM pHLIP ICG, 750 µM POPC liposomes, CD 222 nm, 25.0°C, Henderson-Hasselbalch fit
Protocol: POPC (1-palmitoyl-2-oleoyl-sn-glycero-3-phosphocholine, Avanti Polar Lipids, Inc.) liposomes were used in biophysical measurements to mimic cell membranes and investigate the pHLIP ICG interactions with lipid bilayers. Large unilamellar vesicles (LUVs) were prepared by extrusion. POPC dissolved in chloroform was desolvated in a rotary evaporator and placed under high vacuum for 2 hours to create a phospholipid film. Lipids were then rehydrated in phosphate buffer (pH8) and repeatedly extruded through membranes with a pore size of 100 nm to make LUVs.
Circular dichroism (CD) measurements were employed to monitor the pH-dependent insertion of pHLIP ICG into the membrane of POPC liposomes and the formation of helical structure. […] CD spectra were recorded from 200 to 260 nm with steps of 1 nm. The pH-dependent insertion of pHLIP ICG into the lipid bilayer of POPC liposomes was studied by monitoring the changes in the molar ellipticity (measured in millidegrees) at 222 nm as a function of pH. After the addition of aliquots of citric acid, the pHs of solutions containing 5 μM pHLIP ICG and 750 µM POPC liposomes were measured using an Orion PerHecT ROSS Combination pH Micro Electrode and an Orion Dual Star pH and ISE Benchtop Meter before and after each spectrum measurement to ensure that equilibrium is achieved. […]

[3] = Imaging of blood vessels in pigs; type: in vivo; details: i.v. 0.052 + 0.12 + 0.24 mg/kg, Stryker 1688 AIM and SPY-PHI
Protocol: Pigs (50 kg) received pHLIP ICG dissolved in PBS or PBS containing 5% Ethanol. Three doses of pHLIP ICG were administered (dose level 1 is 0.052 mg/kg of pHLIP ICG, dose level 2 is an additional administration of 0.12 mg/kg of pHLIP ICG and dose level 3 is an additional administration of 0.24 mg/kg of pHLIP ICG). Each dose was injected intravenously in one bolus followed by a saline flush. Endoscopical and exoscopical imaging was performed at the same time and up to 2 hrs after pHLIP ICG administration. Endoscopic imaging was carried out using the Stryker 1688 system with the L11 light source (808 nm excitation) and adjustable gain. […] Images and video were recorded on a Stryker Connected OR Hub device. […] The overlay mode captures an NIR frame and a white light frame and combines the two to allow surgeons to have the best fluorescence reference (green) while still operating. […] The ENV mode contains the white light frame data in a black/white mode and overlays the fluorescence signal in green to provide a hybrid mode that allows a higher signal-to-noise ratio view of the fluorescence image while still retaining enough of a view of the surrounding tissue to allow the surgeon to continue to operate. The SPY-PHI system has three infrared imaging modes: Overlay, Contrast, and CSF (color-segmented fluorescence). […]

## CC(C)C[C@H](NC(=O)[C@H](Cc1ccc(O)cc1)NC(=O)[C@H](C)NC(=O)[C@H](CCCNC(=N)N)NC(=O)[C@H](Cc1c[nH]c2ccccc12)NC(=O)[C@@H]1CCCN1C(=O)[C@H](CC(N)=O)NC(=O)[C@H](CCC(N)=O)NC(=O)[C@H](CC(=O)O)NC(=O)[C@H](CC(=O)O)NC(=O)[C@H](CSC1CC(=O)N(CCNC(=O)CCCCCN2/C(=C/C=C/C=C/C=C/C3=[N+](CCCCS(=O)(=O)[O-])c4ccc5ccccc5c4C3(C)C)C(C)(C)c3c2ccc2ccccc32)C1=O)NC(=O)[C@H](C)N)C(=O)N[C@@H](CC(=O)O)C(=O)N[C@@H](CC(C)C)C(=O)N[C@@H](CC(C)C)C(=O)N[C@@H](Cc1ccccc1)C(=O)N1CCC[C@H]1C(=O)N[C@H](C(=O)N[C@@H](CC(=O)O)C(=O)N[C@H](C(=O)N[C@@H](CC(C)C)C(=O)N[C@@H](CC(C)C)C(=O)N[C@@H](CC(C)C)C(=O)N[C@@H](CC(=O)O)C(=O)N[C@@H](CC(C)C)C(=O)N[C@@H](CC(C)C)C(=O)N[C@@H](Cc1c[nH]c2ccccc12)C(=O)N[C@@H](C)C(=O)O)[C@@H](C)O)[C@@H](C)O (stereo partly drawn) [pHLIP ICG] (H-AC(X1)DDQNPWRAYLDLLFPTDTLLLDLLWA-OH)
[1]
  Inhibitory effect on 86 enzyme and receptor targets: No inhibitory effect was observed
[2]
  Midpoint of the transition (pK) of insertion into liposomes: 6.3 pH
[3]
  Visibility of illuminated blood vessels: clearly visible at 2 h post-injection
